This is an account of results in US5288709A, “Erythromycin derivatives” (priority 1991, dated 1994).

One may read the ED50 as the dose at which the effect has come halfway, by size or by number of responders. One may read the half-life as the time needed for the level to fall by half in the phase considered. High values mean slow decline, low ones rapid decline.

Values after ≈ are worked out from the molar mass of the structure shown. Values joined by “and” are separate entries in the source; they are usually repeats but may differ in a detail not shown here. Equal entries are not always repeated. Where two headings read alike, the source gives them in different places.

The subject of data set [1] is Micrococcus luteus ATCC 9341. Put plainly: In-vitro antimicrobial activity primary screen (agar dilution MIC). The following applies: 20-24 h. Type of data set: cell-based. The gist of the method:
(§1)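 Twelve plates of successive aqueous compound dilutions in Brain Heart Infusion agar were spot-inoculated by Steers replicator with 1:100 culture dilutions (1:10 for slow growers such as Streptococcus) and incubated at 35-37° C for 20-24 hours. MIC was the lowest concentration giving no growth, slight haze or sparse colonies.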
Background: In agar dilution the substance is mixed into plates at graded concentrations.

For data set [2], the system named is Pseudomonas aeruginosa BMH10. Described as above. Format: cell-based. As to conditions: BHI agar, 20-24 h. The gist of the method:
as §1

The test system of data set [3] is Pseudomonas cepacia 2961. The data set is described as above. Type of data set: cell-based. The following applies: BHI agar, 20-24 h. The gist of the method: as §1
The subject of data set [4] is Staphylococcus aureus 45. The description is as above. Format: cell-based. As to conditions: BHI agar, 20-24 h, read-out: MIC. The gist of the method:
as §1

Data set [5] relates to Staphylococcus aureus A5177. The data set is described as above. Type of data set: cell-based. As to conditions: Staphylococcus aureus A5177, BHI agar, 20-24 h. The gist of the method:
as §1

In data set [6] the test system is Staphylococcus aureus (NCTC 10649). Put plainly: In-vivo acute mouse protection assay. More on the design: species or system Staphylococcus aureus; female Swiss albino mice. As to conditions: dosed 1 and 5 h post-infection, observed 7 days. The procedure:
(§2) An acute mouse protection test was conducted on ten mice with each of three concentrations of selected compounds of the invention. Each concentration was a four-fold dilution of the previous concentration. The initial concentration will vary with the microorganism with which the mouse is challenged.
(§3) The acute mouse protection test was conducted on female, Swiss albino mice, 18-20 grams in weight. […] To check the potency of the inoculum, a titration of the indicated test organism was carried out in control animals. The titration determines the LD50 for a particular microorganism. The treatment groups of animals were dosed orally, by gavage, or subcutaneously with the test compounds at 1 and 5 hours post-infection and observed for 7 days. The ED50 were calculated using the mortality data collected.

Data set [7] deals with Streptococcus pneumoniae (ATCC 6303). Kind of data set: In-vivo acute mouse protection assay. More on the design: species or system Streptococcus pneumoniae; female Swiss albino mice. The following applies: dosed 1 and 5 h post-infection, observed 7 days. Here is the method: as §2, §3
Data set [8] concerns Staphylococcus aureus 642A. Kind of data set: In-vitro antimicrobial activity primary screen (agar dilution MIC). Format: cell-based. The following applies: BHI agar, 20-24 h. The gist of the method:
as §1

The test system of data set [9] is Staphylococcus aureus NCTC 10649. The data set is described as above. Format: cell-based. The following applies: BHI agar, 20-24 h. The gist of the method: as §1
Data set [10] relates to Haemophilus influenzae ATCC 43095. Put plainly: Treatment of induced otitis media in gerbils. Type of data set: in vivo, Haemophilus influenzae; female mongolian gerbils. The following applies: read-out: ED50 (dose required to reduce CFUs by 90%). The procedure: The effectiveness of one of the compounds of the present invention in treating otitis media was examined as desribed below. A five hour log phase culture of Haemophilus influenzae ATCC 43095 was prepared in brain heart infusion broth (BHIB) supplemented with 4% Fildes enrichment and 0.001% nicotinamide adenine dinucleotide (NAD; commerically available from Sigma Chemical Co., St. Louis, Missouri).
Immediately prior to treatment with the test compounds, middle ear aspirates from five gerbils were obtained as described below and cultured to determine the level of infection at the onset of therapy. The test compounds produced by Example 19, (9S,11S)-11-Amino-9-deoxo-11,12-deoxy-9,12-epoxyerythromycin A, was administered orally by gavage in a 0.5 mL volume beginning 17 hours post infection and continuing three times daily for two days to groups of five gerbils. As a standard, a second group of gerbils was similarly treated using erythromycin. Eighteen hours after the final treatment, the gerbils were euthanized, 0.02 mL of BHIB injected into the middle ear bulla through the tympanic membrane, and middle ear aspirates collected and cultured.
The aspirates were diluted in BHIB and plated in duplicate onto chocolate agar. Colonies were counted after overnight incubation, and bacterial counts were expressed as colony forming units (CFUs) per middle ear. […]

Data set [11] in a line: in vivo. The following applies: dog, iv, 10 mg/kg, t1/2 (biological half life), microbiological assay.
Method: Selected compounds of the present invention were formulated as solutions in dilute lactobionic acid at a concentration of 10 or 20 mg/ml. Groups of two or three dogs were given a 10 mg macrolide/kg intravenous bolus or oral dose (by gavage). Plasma samples, obtained at selected time points from 15 minutes to 32 hours after dosing, were assayed using reverse phase HPLC with electrochemical detection (parent drug) and microbiological assay (total microbiological activity). Plasma concentration time curves were subjected to multi exponential curve fitting to determine terminal elimination half life values. Area under the curve (AUC) values, calculated by the trapezoidal method, were used to calculate absolute bioavailability.
Where [12] appears, read: Micrococcus luteus, ATCC9341, 24 h, BHI agar.
[13] abbreviates: Pseudomonas aeruginosa, BMH10, 24 h.
The mark [14] stands for this setting: Burkholderia cepacia, 2961, 24 h.
[15] abbreviates: Staphylococcus aureus, A5177, 24 h.
[16] abbreviates: Staphylococcus aureus, NCTC10649, 168 h, oral, read-out: ED50.
[17] abbreviates: Staphylococcus aureus, NCTC10649, sc, 168 h, subcutaneous, read-out: ED50.
Where [18] appears, read: ATCC6303, 168 h, oral, read-out: ED50.
Where [19] appears, read: ATCC6303, sc, 168 h, subcutaneous, read-out: ED50.
Setting [20] is: Burkholderia cepacia, read-out: MIC.

Consider `CC[C@H]1OC(=O)[C@H](C)[C@@H](O[C@H]2C[C@@](C)(OC)[C@@H](O)[C@H](C)O2)[C@H](C)[C@@H](O[C@@H]2O[C@H](C)C[C@H](N(C)C)[C@H]2O)[C@](C)(O)C[C@@H](C)[C@@H]2O[C@@]1(C)[C@@H](O)[C@H]2C` [Example 4, (9S,11S)-9-Deoxo-12-deoxy-9,12-epoxyerythromycin A], for which the MIC was 0.05 µg/mL (≈ 0.0696 µM) in data set [1] (setting [12]); 50 µg/mL (≈ 69.6 µM) in [2] (setting [13]); above 100 µg/mL in [3] (setting [14]); 0.2 µg/mL (≈ 0.279 µM) in [4]; 3.1 µg/mL (≈ 4.32 µM) in data set [5] (setting [15]). The ED50 in data set [6] (setting [16]) was determined as 55 mg/kg; in [6] (setting [17]), 22.6 mg/kg; in data set [7] (setting [18]), 20.4 mg/kg; in data set [7] (setting [19]) it was 1.3 mg/kg.
For `CC[C@H]1OC(=O)[C@H](C)[C@@H](O[C@H]2C[C@@](C)(OC)[C@@H](O)[C@H](C)O2)[C@H](C)[C@@H](O[C@@H]2O[C@H](C)C[C@H](N(C)C)[C@H]2O)[C@](C)(O)C[C@@H](C)C(=O)[C@H](C)[C@@H](O)[C@]1(C)O` [Std, Erythromycin A, reference compound], the MIC is 0.02 microgram/mL in data set [1] (BHI agar); 100 microgram/mL in data set [3]; above 100 µg/mL in data set [3] (setting [14]); 0.1 microgram/mL in [8]; 0.2 µg/mL (≈ 0.273 µM) in data set [8] (Staphylococcus aureus, 642A, 24 h); 0.1 microgram/mL in [9]. This molecule showed an MIC in [9] (Staphylococcus aureus, NCTC10649, 24 h) of 0.2 µg/mL (≈ 0.273 µM). Besides, the median effective dose (ED50) in data set [6] (Staphylococcus aureus, NCTC10649, sc, 168 h, subcutaneous) is 12.9 mg/kg; in data set [6] (subcutaneous, 10080 min), 8.3 mg/kg and 11.6 mg/kg; in [10] (ATCC43095, po), above 300 mg/kg. In data set [11], this molecule gave a half-life of 1.4 h.
Consider `CC[C@H]1OC(=O)[C@H](C)[C@@H](O[C@H]2C[C@@](C)(OC)[C@@H](O)[C@H](C)O2)[C@H](C)[C@@H](O[C@@H]2O[C@H](C)C[C@H](N(C)C)[C@H]2O)[C@](C)(O)C[C@@H](C)[C@@H]2O[C@@]1(C)C(=O)[C@H]2C` [Example 5, (9S)-9-Deoxo-11,12-dideoxy-9,12-epoxy-11-oxoerythromycin A], for which the MIC in [1] (setting [12]) was below 0.05 µg/mL; in data set [2] (read-out: MIC), 100 µg/mL (≈ 140 µM); in data set [3] (setting [20]), 100 µg/mL (≈ 140 µM); in data set [4], 0.1 µg/mL (≈ 0.14 µM); in [5] (setting [15]), 3.1 µg/mL (≈ 4.33 µM). Further, the ED50 in [6] (setting [16]) was 25.2 mg/kg; in data set [6] (setting [17]), 22.6 mg/kg; in data set [7] (setting [18]) it was 23.7 mg/kg; in data set [7] (setting [19]), below 0.4 mg/kg.
`CC[C@H]1OC(=O)[C@H](C)[C@@H](O[C@H]2C[C@@](C)(OC)[C@H](N)[C@H](C)O2)[C@H](C)[C@@H](O[C@@H]2O[C@H](C)C[C@H](N(C)C)[C@H]2O)[C@](C)(O)C[C@@H](C)[C@@H]2O[C@@]1(C)[C@@H](O)[C@H]2C` [Example 13, (4"R,9S,11S) 4"-Amino-9-deoxo-4",12-dideoxy-9,12-epoxyerythromycin A]: the MIC is 0.01 µg/mL (≈ 0.0139 µM) in [1] (setting [12]); 100 µg/mL (≈ 139 µM) in data set [2] (setting [13]); above 100 µg/mL in data set [3] (setting [14]); 0.2 µg/mL (≈ 0.279 µM) in data set [4]; 0.78 µg/mL (≈ 1.09 µM) in data set [5] (setting [15]). The ED50 is 126 mg/kg in [6] (setting [16]); 39.6 mg/kg in [6] (setting [17]); 84.8 mg/kg in [7] (setting [18]); 4 mg/kg in data set [7] (ATCC6303, sc, 168 h, subcutaneous).
With `CC[C@H]1OC(=O)[C@H](C)[C@@H](O[C@H]2C[C@@](C)(OC)[C@@H](O)[C@H](C)O2)[C@H](C)[C@@H](O[C@@H]2O[C@H](C)C[C@H](N(C)C)[C@H]2O)[C@](C)(O)C[C@@H](C)[C@@H]2O[C@@]1(C)[C@@H](N)[C@H]2C` [Example 19, (9S,11S)-11-Amino-9-deoxo-11,12-deoxy-9,12-epoxyerythromycin A], the MIC in data set [1] (ATCC9341, BHI agar, read-out: MIC) is 0.01 µg/mL (≈ 0.0139 µM); in data set [2] (read-out: MIC), 50 µg/mL (≈ 69.7 µM); in data set [3] (setting [20]), above 100 µg/mL; in data set [4], 0.2 µg/mL (≈ 0.279 µM); in [5] (read-out: MIC), 0.39 µg/mL (≈ 0.544 µM). In addition, the ED50 in data set [6] (setting [16]) was 75.4 mg/kg; in data set [6] (setting [17]), 20.7 mg/kg; in data set [7] (setting [18]), below 9.4 mg/kg; in [7] (setting [19]), 1.1 mg/kg; in [10] (ATCC43095, gerbil, oral gavage three times daily for two days from 17 h post infection), 46.5 mg/kg.
